In patent publication US10947213B1 (Merck Patent GmbH, priority 2015, dated 2021):
Counter-ions that a name gives are not always drawn.

biological target: T1, TLR7/NFKb HEK cells (Homo sapiens, UniProt Q9NYK1); experiment: HEK Cell Assay (TLR7/NFKb reporter, Steady-Glo luciferase readout); type: cell-based; conditions: 30 min compound preincubation, then R*48 agonist for 5 hours, read-out: Potency
T1 construct: expressed in transfected cells; host or cells: HEK cells (TLR7/NFKb reporter line)
T1 sequence (Q9NYK1 27-1049): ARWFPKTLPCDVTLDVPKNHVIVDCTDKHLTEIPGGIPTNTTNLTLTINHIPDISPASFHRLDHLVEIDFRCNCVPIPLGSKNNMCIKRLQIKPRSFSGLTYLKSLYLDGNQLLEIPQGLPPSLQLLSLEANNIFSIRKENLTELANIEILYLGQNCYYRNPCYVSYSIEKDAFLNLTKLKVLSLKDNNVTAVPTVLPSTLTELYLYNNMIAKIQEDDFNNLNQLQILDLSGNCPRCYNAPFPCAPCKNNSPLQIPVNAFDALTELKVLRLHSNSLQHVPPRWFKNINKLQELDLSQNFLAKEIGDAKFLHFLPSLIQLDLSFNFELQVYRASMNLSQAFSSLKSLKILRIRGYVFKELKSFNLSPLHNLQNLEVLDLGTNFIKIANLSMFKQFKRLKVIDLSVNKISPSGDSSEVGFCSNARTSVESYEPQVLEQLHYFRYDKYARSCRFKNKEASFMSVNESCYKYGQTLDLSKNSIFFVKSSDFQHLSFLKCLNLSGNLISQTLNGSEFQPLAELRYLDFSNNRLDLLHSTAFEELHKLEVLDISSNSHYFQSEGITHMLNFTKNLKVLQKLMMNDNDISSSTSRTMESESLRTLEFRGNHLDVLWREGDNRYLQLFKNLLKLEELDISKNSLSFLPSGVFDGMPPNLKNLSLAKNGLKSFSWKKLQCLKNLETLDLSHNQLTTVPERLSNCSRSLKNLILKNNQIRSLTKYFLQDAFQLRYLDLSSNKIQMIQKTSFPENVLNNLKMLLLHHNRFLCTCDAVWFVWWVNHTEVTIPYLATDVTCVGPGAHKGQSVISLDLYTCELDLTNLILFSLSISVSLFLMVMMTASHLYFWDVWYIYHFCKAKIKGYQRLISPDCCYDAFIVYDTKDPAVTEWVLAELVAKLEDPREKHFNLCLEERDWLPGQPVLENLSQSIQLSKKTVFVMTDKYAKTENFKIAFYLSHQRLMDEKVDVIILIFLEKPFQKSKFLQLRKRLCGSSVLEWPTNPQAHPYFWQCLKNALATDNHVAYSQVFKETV
Description: Example 142: HEK Cell Assay
Into 384 CulturePlates (Corning 3707) was placed 5000 c/w of TLR7/NFKb HEK cells in 30 uL DMEM without Phenil red (gibco #31053) and 10% i.a. FCS and 2 mM L-ZGLutamin. The cells were incubated for 24 h at 37° C., 10% carbon dioxide and 90% relative humidity. 3 uL of controls, standards, and compounds were dispensed into wells, incubated for 30 min then 3 uL of R*48 agonist in 20 mM Hepes was added. After incubation for 5 hours, they were allowed to stand at room temperature for 15 min. To this was added 10 uL of Steady-Glo substrate reagent and shake assay plate for 5 min at 1500 rpm. The assay plate was allowed to sit for 30 min at room temperature and then the plate was read on EnVision.

Compound | IC50
O=C(CN1CCOCC1)N[C@H]1C[C@@H](C2CC2)CN(c2ccc(F)c3ncccc23)C1 (racemic) [Compound 367, cis-N-[5-cyclopropyl-1-(8-fluoroquinolin-5-yl)piperidin-3-yl]-2-(morpholin-4-yl)acetamide] | > 10000 nM
CN(C(=O)CN1CCOCC1)[C@H]1C[C@@H](C2CC2)CN(c2ccc(F)c3ncccc23)C1 (racemic) [Compound 368, cis-N-[5-cyclopropyl-1-(8-fluoroquinolin-5-yl)piperidin-3-yl]-N-methyl-2-(morpholin-4-yl)acetamide] | > 10000 nM
N#Cc1ccc(N2C[C@@H](NC(=O)CN3CCOCC3)C[C@@H](C(F)(F)F)C2)c2cccnc12 (racemic) [Compound 424, cis-N-[1-(8-Cyano-quinolin-5-yl)-5-trifluoromethyl-piperidin-3-yl]-2-morpholin-4-yl-acetamide] | 1000 to 10000 nM
CN(C)CC(=O)N[C@H]1C[C@@H](C(F)(F)F)CN(c2ccc(C#N)c3ncccc23)C1 (racemic) [Compound 426, cis-N-[1-(8-Cyano-quinolin-5-yl)-5-trifluoromethyl-piperidin-3-yl]-2-dimethylamino-acetamide] | < 1000 nM
CC(C)(O)CC(=O)N[C@@H]1C[C@H](C(F)(F)F)CN(c2ccc(C#N)c3ncccc23)C1 (racemic) [Compound 481] | 1000 to 10000 nM
N#Cc1ccc(N2C[C@@H](NC(=O)CCC(=O)N3CCC3)C[C@@H](C(F)(F)F)C2)c2cccnc12 (racemic) [Compound 482] | 1000 to 10000 nM
CNC(=O)CCC(=O)NC1CC(C(F)(F)F)CN(c2ccc(C#N)c3ncccc23)C1 (racemic) [Compound 492, cis-(N-1-(8-Cyano-quinolin-5-yl)-5-trifluoromethyl-piperidin-3-yl]-N′-methyl-succinamide)] | 1000 to 10000 nM
CC(C)(C)CC(=O)N[C@H]1C[C@@H](C(F)(F)F)CN(c2ccnc3nccnc23)C1 (relative stereo) [Compound 86, cis-3,3-dimethyl-N-[1-[pyrido[2,3-b]pyrazin-8-yl]-5-(trifluoromethyl)piperidin-3-yl]butanamide] | > 10000 nM
N#Cc1ccc(N2C[C@H](NCCC(F)(F)F)C[C@H](C(F)(F)F)C2)c2nccnc12 (relative stereo) [Compound 95, cis-8-[3-(trifluoromethyl)-5-[(3,3,3-trifluoropropyl)amino]piperidin-1-yl]quinoxaline-5-carbonitrile] | 1000 to 10000 nM
FC(F)(F)CCN[C@H]1C[C@@H](C(F)(F)F)CN(c2ccnc3nccnc23)C1 (relative stereo) [Compound 96, cis-1-[pyrido[2,3-b]pyrazin-8-yl]-5-(trifluoromethyl)-N-(3,3,3-trifluoropropyl)piperidin-3-amine hydrochloride] | > 10000 nM
CC(C)(C)CC(=O)N[C@H]1C[C@@H](C2CC2)CN(c2ccc(C#N)c3nccnc23)C1 (relative stereo) [Compound 175, cis-N-[1-(8-cyanoquinoxalin-5-yl)-5-cyclopropylpiperidin-3-yl]-3,3-dimethylbutanamide] | 1000 to 10000 nM
COCCN[C@@H]1C[C@H](C2CC2)CN(c2ccc(C#N)c3nccnc23)C1 (relative stereo) [Compound 176, cis-8-[3-cyclopropyl-5-[(2-methoxyethyl)amino]piperidin-1-yl]quinoxaline-5-carbonitrile] | 1000 to 10000 nM
CN(C)CC(=O)N[C@H]1C[C@@H](C2CC2)CN(c2ccc(C#N)c3nccnc23)C1 (relative stereo) [Compound 179, cis-N-[1-(8-cyanoquinoxalin-5-yl)-5-cyclopropylpiperidin-3-yl]-2-(dimethylamino)acetamide] | 1000 to 10000 nM
COCCN[C@H]1C[C@@H](C(F)(F)F)CN(c2ccc(C#N)c3nccnc23)C1 (relative stereo) [Compound 221, cis-8-[3-[(2-methoxyethyl)amino]-5-(trifluoromethyl)piperidin-1-yl]quinoxaline-5-carbonitrile] | 1000 to 10000 nM

Now from value to molecule:

IC50 | Compound
< 1000 nM | N#Cc1ccc(N2CC(NC(=O)C(N)C3CC3)CC(C(F)(F)F)C2)c2cccnc12 (mixture of isomers) [Compound 486, rac-(R)-2-Amino-N-[(3R,5S)-1-(8-cyano-quinolin-5-yl)-5-trifluoromethyl-piperidin-3-yl]-2-cyclopropyl-acetamide]
1000 to 10000 nM | N[C@@H]1C[C@H](C(F)(F)F)CN(c2ccnc3nccnc23)C1 (racemic) [Compound 84]
< 1000 nM | CN1CCN(CC(=O)N[C@H]2C[C@@H](C3CC3)CN(c3ccc(C(F)(F)F)c4ncccc34)C2)CC1 (racemic) [Compound 338, cis-N-[5-cyclopropyl-1-[8-(trifluoromethyl)quinolin-5-yl]piperidin-3-yl]-2-(4-methylpiperazin-1-yl)acetamide]
< 1000 nM | C[C@@H]1C[C@H](O)CN(c2ccc(C(F)(F)F)c3ncccc23)C1 (racemic) [Compound 461, cis-5-Methyl-1-(8-trifluoromethyl-quinolin-5-yl)-piperidin-3-ol]
< 1000 nM | N#Cc1ccc(N2C[C@@H](NC(=O)CC3(N)CCCCC3)C[C@@H](C(F)(F)F)C2)c2cccnc12 (racemic) [Compound 479, hydrochloride]
< 1000 nM | CN1CC(CC(=O)NC2CC(C(F)(F)F)CN(c3ccc(C#N)c4ncccc34)C2)C1 (racemic) [Compound 490, cis-N-[(1-(8-Cyano-quinolin-5-yl)-5-trifluoromethyl-piperidin-3-yl]-2-(1-methyl-azetidin-3-yl)-acetamide]
< 1000 nM | N#Cc1ccc(N2CC(NC(=O)CC3(O)CCCCC3)CC(C(F)(F)F)C2)c2cccnc12 (racemic) [Compound 491]
< 1000 nM | N#Cc1ccc(N2CC(NC(=O)CC3(N)CCOCC3)CC(C(F)(F)F)C2)c2cccnc12 (racemic) [Compound 493, 2-(4-Amino-tetrahydro-pyran-4-yl)-N-[1-(8-cyano-quinolin-5-yl)-5-trifluoromethyl-piperidin-3-yl]-acetamide hydrochloride]
< 1000 nM | CN1CCN(C(=O)CCC(=O)N[C@H]2C[C@@H](C(F)(F)F)CN(c3ccc(C#N)c4ncccc34)C2)CC1 (racemic) [Compound 496, cis-N—[-1-(8-Cyano-quinolin-5-yl)-5-trifluoromethyl-piperidin-3-yl]-4-(4-methyl-piperazin-1-yl)-4-oxo-butyramide]
< 1000 nM | CN1CCC(CC(=O)NC2CN(c3ccc(C#N)c4nccnc34)CC(F)(F)C2)CC1 (racemic) [Compound 504, N-[1-(8-Cyano-quinoxalin-5-yl)-5,5-difluoro-piperidin-3-yl]-2-(1-methyl-piperidin-4-yl)-acetamide]
< 1000 nM | N#Cc1ccc(N2C[C@@H](N)C[C@@H](C(F)(F)F)C2)c2cccnc12 (relative stereo) [Compound 71, cis-5-(3-Amino-5-trifluoromethyl-piperidin-1-yl)-quinoline-8-carbonitrile]
< 1000 nM | CC(C)(C)CC(=O)N[C@H]1C[C@@H](C(F)(F)F)CN(c2ccc(C#N)c3nccnc23)C1 (relative stereo) [Compound 85, cis-N-[1-(8-cyanoquinoxalin-5-yl)-5-(trifluoromethyl)piperidin-3-yl]-3,3-dimethylbutanamide]
< 1000 nM | CN(C)CC(=O)N[C@H]1C[C@@H](C(F)(F)F)CN(c2ccc(C#N)c3nccnc23)C1 (relative stereo) [Compound 222, cis-N-[1-(8-cyanoquinoxalin-5-yl)-5-(trifluoromethyl)piperidin-3-yl]-2-(dimethylamino)acetamide]
